In brackets after ≈: the same amount, converted by molar mass.
Key:
Assay in all cases: microbe, parasite or virus in culture
Format in all cases: cell-based
Settings in all cases: micro-dilution, YNB medium, 4 × 10^4 cell/mL, 48 h, 30 °C, OD 620 nm, MIC = growth inhibition ≥90%, peptides 25 to 1.56 µM, fluconazole 200 to 0.78 µM, three biological repeats in triplicates
Candida glabrata CBS 138 = system: Candida glabrata CBS 138
Method: (§1) The antifungal activity of all the 14 peptides was tested against the following opportunistic human pathogen Candida species and strains: C. albicans strains ATCC 10231, SC 5314 and SZMC 1458, C. auris 0381, C. glabrata CBS 138, C. parapsilosis CBS 604 and C. tropicalis CBS 94.
(§2) All the Candida strains (Table 4) were grown overnight in YPD medium (1% pepton, 1% dextrose, 0.5% yeast extract) at 30 °C in water bath shaker prior to each experiments. The cells were harvested by centrifugation (5 min, 3000× g) washed twice with sterile distilled water and suspended in 5-fold diluted Difco Yeast Nitrogen Base w/o Amino Acids medium (Becton, Dickinson and Company, Sparks, MD, USA) supplemented with 1% dextrose, referred to as YNB medium in the text. Cells were counted in Bürker chamber and diluted to the proper concentration.
(§3) The growth inhibition of the peptides listed in Table 1 was tested in 96-well microtiter plates on Candida strains. The minimal inhibitory concentration (MIC) was determined with the micro-dilution method by adding 5 µL serially two-fold-diluted peptide solution to 95 µL of cell suspension (4 × 10^4 cell/mL) in YNB medium. After 48 h of incubation at 30 °C the optical density of the cultures was measured at 620 nm in SPECTROstar Nano plate reader (BMG LabTech, Offenburg, Germany). Minimal inhibitory concentration was defined as growth inhibition ≥90% compared to 100% growth of the untreated control. The experiments were carried out in three biological repeats always in triplicates.

Candida albicans SC 5314 = system: Candida albicans SC 5314
Method: as §1, §2, §3

[1] = system: Candida albicans ATCC 10231
Method: as §1, §2, §3

[2] = system: Candida parapsilosis CBS 604
Method: as §1, §2, §3

[3] = system: Candida tropicalis CBS 94
Method: as §1, §2, §3

[4] = system: Candida albicans SZMC 1458
Method: as §1, §2, §3

Candida auris 0381 = system: Candida auris 0381
Method: as §1, §2, §3
Also: key: -: no growth inhibition was observed.

| Compound | MIC (Candida glabrata CBS 138; Nakaseomyces glabratus, CBS138, read-out: Minimal inhibitory concentration, Cg CBS 138) [µM] | MIC (Candida albicans SC 5314; Candida albicans, SC5314, read-out: Minimal inhibitory concentration, Ca SC 5314) [µM] | MIC ([1]; Candida albicans, ATCC10231, read-out: Minimal inhibitory concentration, Ca ATCC 10231) [µM] | MIC ([2]; Lodderomyces parapsilosis, CBS604, read-out: Minimal inhibitory concentration, Cp CBS 604) [µM] | MIC ([3]; Candida tropicalis, CBS94, read-out: Minimal inhibitory concentration, Ct CBS 94) [µM] | MIC ([4]; Candida albicans, SZMC1458, read-out: Minimal inhibitory concentration, Ca SZMC 1458) [µM] | MIC (Candida auris 0381; Candidozyma auris, 0381, read-out: Minimal inhibitory concentration, Cau 0381) [µM] | Minimal inhibitory concentration, Cg CBS 138 (Candida glabrata CBS 138) | Minimal inhibitory concentration, Ca SC 5314 (Candida albicans SC 5314) | Minimal inhibitory concentration, Ca ATCC 10231 [1] | Minimal inhibitory concentration, Cp CBS 604 [2] | Minimal inhibitory concentration, Ct CBS 94 [3] | Minimal inhibitory concentration, Ca SZMC 1458 [4] | Minimal inhibitory concentration, Cau 0381 (Candida auris 0381) |
| --- | --- | --- | --- | --- | --- | --- | --- | --- | --- | --- | --- | --- | --- | --- |
| C[C@@H]1[C@H](O)[C@@H](C)/C=C/C=C/C=C/C=C/C=C/C=C/C=C/[C@H](O[C@@H]2O[C@H](C)[C@@H](O)[C@H](N)[C@@H]2O)C[C@@H]2O[C@](O)(C[C@@H](O)C[C@@H](O)[C@H](O)CC[C@@H](O)C[C@@H](O)CC(=O)O[C@H]1C)C[C@H](O)[C@H]2C(=O)O [Amphotericin B, amphotericin B, reference compound] | 1.56 (≈ 1.44 µg/mL) | 3.12 (≈ 2.88 µg/mL) | 3.12 (≈ 2.88 µg/mL) | 3.12 (≈ 2.88 µg/mL) | 6.25 (≈ 5.78 µg/mL) | 3.12 (≈ 2.88 µg/mL) | 6.25 (≈ 5.78 µg/mL) |  |  |  |  |  |  |  |
| CKTNKDCP [NCR335C9–16, NCR335C fragment 9–16] |  |  |  |  |  |  |  | - | - | - | - | - | - | - |
| FWGQNRNIMKHRGQ [NCR335N16–29, NCR335 N-terminal fragment, amino acids 16–29] |  |  |  |  |  |  |  | - | - | - | - | - | - | - |
| HFSLILSD [NCR335C1–8, NCR335C fragment 1–8] |  |  |  |  |  |  |  | - | - | - | - | - | - | - |
| HFSLILSDCKTNKDCP [NCR335C1–16, NCR335C fragment 1–16] |  |  |  |  |  |  |  | - | - | - | - | - | - | - |
| KLRRANVRCRK [NCR335C17–27, NCR335C fragment 17–27] |  |  |  |  |  |  |  | - | - | - | - | - | - | - |
| RLNTTFRPLNFKMLR [NCR335N1–15, NCR335 N-terminal fragment, amino acids 1–15] |  |  |  |  |  |  |  | - | - | - | - | - | - | - |

From article PMC8037406, “Symbiotic NCR Peptide Fragments Affect the Viability, Morphology and Biofilm Formation of Candida Species” (International Journal of Molecular Sciences, 2021)
